# Measurements as given in patent US8877741B2, “Pyrrolidine derivatives, pharmaceutical compositions and uses thereof” (Boehringer Ingelheim International GmbH, priority 2013, dated 2014).
# Target: human ACC2 (Homo sapiens (Human), UniProt O00763)
# Assay: ACC2 assay, spectrophotometric 384 well assay (NADH-linked kinetic method)
# Assay type: biochemical
# Details: human ACC2 construct lacking the 128 N-terminal amino acids; coupled lactate dehydrogenase/pyruvate kinase reaction, 340 nm, 25° C.
# How it was run: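 ADP formation was monitored as NADH consumption at 340 nm for 15 min at 25 °C, using baculovirus-expressed human ACC2 missing its first 128 amino acids, with 500 μM ATP and 2000 μM each of acetyl-CoA and NADH (final). IC50 was fitted by non-linear regression on low-control-subtracted slopes.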
# Sequence of human ACC2 (O00763 129-2458): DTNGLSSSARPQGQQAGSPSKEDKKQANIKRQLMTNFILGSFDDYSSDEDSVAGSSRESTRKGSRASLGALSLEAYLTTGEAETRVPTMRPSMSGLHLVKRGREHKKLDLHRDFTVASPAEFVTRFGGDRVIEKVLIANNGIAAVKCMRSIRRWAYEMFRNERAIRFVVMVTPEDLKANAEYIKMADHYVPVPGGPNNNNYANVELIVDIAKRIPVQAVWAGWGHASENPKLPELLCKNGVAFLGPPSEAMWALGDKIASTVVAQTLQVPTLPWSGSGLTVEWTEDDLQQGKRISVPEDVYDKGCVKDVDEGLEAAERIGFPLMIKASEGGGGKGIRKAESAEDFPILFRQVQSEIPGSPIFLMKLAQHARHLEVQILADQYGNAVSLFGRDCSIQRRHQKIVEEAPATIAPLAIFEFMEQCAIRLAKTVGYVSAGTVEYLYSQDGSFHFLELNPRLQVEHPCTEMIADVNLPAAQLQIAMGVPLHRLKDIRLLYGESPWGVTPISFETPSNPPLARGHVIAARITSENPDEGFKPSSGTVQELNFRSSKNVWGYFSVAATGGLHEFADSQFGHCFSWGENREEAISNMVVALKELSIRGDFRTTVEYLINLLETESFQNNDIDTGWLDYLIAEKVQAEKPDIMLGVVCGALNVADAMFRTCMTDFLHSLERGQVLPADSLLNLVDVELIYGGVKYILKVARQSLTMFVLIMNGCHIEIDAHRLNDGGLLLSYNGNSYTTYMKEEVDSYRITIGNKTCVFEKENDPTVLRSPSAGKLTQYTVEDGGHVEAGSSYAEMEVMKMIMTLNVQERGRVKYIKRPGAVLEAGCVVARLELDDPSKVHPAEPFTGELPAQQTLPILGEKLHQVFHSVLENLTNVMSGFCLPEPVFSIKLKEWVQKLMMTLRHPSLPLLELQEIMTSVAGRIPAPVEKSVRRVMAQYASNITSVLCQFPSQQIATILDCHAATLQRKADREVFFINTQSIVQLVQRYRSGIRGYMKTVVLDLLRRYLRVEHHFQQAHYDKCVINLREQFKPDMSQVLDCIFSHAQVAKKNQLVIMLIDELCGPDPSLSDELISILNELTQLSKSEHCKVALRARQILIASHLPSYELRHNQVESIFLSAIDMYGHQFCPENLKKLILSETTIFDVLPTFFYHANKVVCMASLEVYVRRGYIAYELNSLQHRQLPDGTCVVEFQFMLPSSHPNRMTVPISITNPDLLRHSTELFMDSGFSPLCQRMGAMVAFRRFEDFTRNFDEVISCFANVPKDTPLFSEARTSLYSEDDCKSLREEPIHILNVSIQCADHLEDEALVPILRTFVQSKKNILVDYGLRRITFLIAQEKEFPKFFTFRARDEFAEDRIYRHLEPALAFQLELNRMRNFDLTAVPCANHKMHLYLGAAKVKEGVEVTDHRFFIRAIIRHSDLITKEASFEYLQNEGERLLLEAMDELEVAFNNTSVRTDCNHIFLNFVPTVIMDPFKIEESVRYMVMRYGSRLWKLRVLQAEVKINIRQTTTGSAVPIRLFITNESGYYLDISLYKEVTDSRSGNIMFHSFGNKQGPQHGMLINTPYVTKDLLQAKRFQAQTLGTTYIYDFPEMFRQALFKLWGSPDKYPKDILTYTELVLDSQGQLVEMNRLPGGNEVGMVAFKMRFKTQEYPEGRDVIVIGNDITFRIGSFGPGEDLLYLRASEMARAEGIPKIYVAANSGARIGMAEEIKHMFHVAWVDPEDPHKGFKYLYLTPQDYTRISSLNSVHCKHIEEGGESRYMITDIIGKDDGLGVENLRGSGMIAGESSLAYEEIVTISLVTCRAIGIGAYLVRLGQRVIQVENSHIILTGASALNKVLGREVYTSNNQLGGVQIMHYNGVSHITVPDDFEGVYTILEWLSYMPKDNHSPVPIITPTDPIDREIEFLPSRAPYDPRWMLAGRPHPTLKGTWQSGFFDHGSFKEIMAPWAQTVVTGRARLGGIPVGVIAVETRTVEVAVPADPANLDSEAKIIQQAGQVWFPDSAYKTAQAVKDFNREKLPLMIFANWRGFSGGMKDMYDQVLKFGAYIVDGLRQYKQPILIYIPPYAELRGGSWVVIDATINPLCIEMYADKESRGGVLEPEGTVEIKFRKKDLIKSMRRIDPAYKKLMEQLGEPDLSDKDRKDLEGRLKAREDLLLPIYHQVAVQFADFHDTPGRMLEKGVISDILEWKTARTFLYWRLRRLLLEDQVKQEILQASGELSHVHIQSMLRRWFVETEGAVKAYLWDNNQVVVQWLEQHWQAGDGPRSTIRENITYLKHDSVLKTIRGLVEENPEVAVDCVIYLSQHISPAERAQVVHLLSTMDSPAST
compound,measurement,value
CCCNc1nccc(N2CCC(Oc3ccc([C@H](C)NC(=O)N4CCOCC4)cc3)C2)c1F (some centres unmarked) [Example 5.8],IC50,0.141 µM
C[C@H](NC(=O)c1cncs1)c1ccc(OC2CCN(c3cccc(C(F)(F)F)n3)C2)cc1 (some centres unmarked) [Example 2.46],IC50,0.06 µM
